Results: ChEMBL document CHEMBL3507680, “University of Dundee, Gates Library screen for HepG2 cell viability”

Assay: Human HepG2 cell viability assay in 384 well format
Format: toxicity, cell-based
Parameters: dose 125 nL, time 70.5 hour; cytotoxicity at 70.5 h: concentration not given beside the values
Conditions: HepG2 cells, read-out: Inhibition

In order of rising cytotoxicity at 70.5 h:
1. O=C(CNc1ccccc1Cl)Nc1cc(-n2cnnn2)ccc1F  -117%
2. Cc1ccc(S(=O)(=O)CCC(=O)N(C)Cc2cnn(C)c2)cc1  -73.6%
3. N#Cc1c(Cl)nsc1NCc1ccnc(OCC(F)(F)F)c1  -44.2%
4. Cc1cc(=O)n2ncnc2n1CC(O)c1cc(Cl)ccc1Cl (stereo not drawn)  -22.2%
5. CC(CN1CCCC1=O)NC(=O)c1cc(-c2cccc(Cl)c2)no1 (stereo not drawn)  -18.5%
6. CN(CC(=O)Nc1nc2c(s1)CCCCCC2)C(=O)c1ccco1  -17.3%
7. CC(NC(=O)c1cc(-c2cccc(Cl)c2)no1)C(=O)N(C)C (stereo not drawn)  -17.3%
8. Cc1cc(=O)n2ncnc2n1CC(O)c1ccccc1 (stereo not drawn)  -17.2%
9. Cc1ccc(CS(=O)(=O)CC(=O)NCc2ccccc2F)cc1  -15.5%
10. N#Cc1cccc(CNc2cc(CO)ccc2Cl)c1  -15.1%
11. Cc1noc(C(C)N2CCN(c3ncnc4ccccc34)CC2)n1 (stereo not drawn)  -13.6%
12. CC(=O)N1CCN(C(=O)c2cnc(OC(C)C)c(Cl)c2)CC1  -13.6%
13. CCNc1cc2c(nn1)CCN(C(=O)C1Cc3ccccc3O1)C2 (stereo not drawn)  -12.9%
14. Cc1ccc(C(O)CNC(=O)c2cccnc2O)cc1 (stereo not drawn)  -12.1%
15. CC(=O)N1CCCN(C(=O)c2cnc(OC(C)C)c(Cl)c2)CC1  -11.9%
16. O=C(c1cccnc1O)N(Cc1cccs1)CC1CCCO1 (stereo not drawn)  -11.9%
17. NC(=O)CN(CC(=O)NCc1cccc(Cl)c1)C1CCCC1  -11.2%
18. CC(C)Cc1noc(CN2CCN(C(=O)c3cccs3)CC2)n1  -11.2%
19. Cc1n[nH]c(C2CN(C(=O)c3ccc(Cl)o3)CCO2)n1 (stereo not drawn)  -11.1%
20. CNC(=O)NC(=O)C(C)Nc1ccccc1OCCOC (stereo not drawn)  -10.8%
21. Cc1cc(=O)n2ncnc2n1CC(O)c1ccccc1F (stereo not drawn)  -10.7%
22. Cc1n[nH]c(C2CN(C(=O)c3ccon3)CCO2)n1 (stereo not drawn)  -10.2%
23. O=C(Cc1ccc2c(c1)OCO2)N1CCN(c2ccncc2)CC1  -9.91%
24. CC(Cc1ccsc1)NC(=O)c1cc(N2CCNC2=O)ccc1F (stereo not drawn)  -9.62%
25. COc1ccnc(N2CCCN(c3nc(C4CC4)ns3)CC2)n1  -9.55%
26. CCOc1cc(C)nc(N2CCN(C(=O)c3cc(Cl)c[nH]3)CC2)n1  -8.74%
27. CCOCCN1CCN(CCOC)CC1C (stereo not drawn)  -8.63%
28. O=C(Cc1ccc2c(c1)OCO2)N1CCCN(c2nccs2)CC1  -8.59%
29. Cn1cc(C2CCCN2C(=O)CS(=O)(=O)C2CCCC2)cn1 (stereo not drawn)  -8.05%
30. Cc1ccc(C(=O)N2CCSCC2)cc1NC(=O)NCC1CCC1  -7.96%
31. CC1CN(C(=O)Nc2ccc(Cl)c(C(=O)NC3CC3)c2)CC(C)(C)O1 (stereo not drawn)  -7.92%
32. Cc1cc(N2CCN(C(=O)c3cc(Cl)c[nH]3)CC2)nc(C(C)C)n1  -7.83%
33. COc1cc(OC)cc(N2CCC(NC(=O)c3ccc[nH]3)CC2)c1  -7.63%
34. CCN(c1ccc(C(=O)Nc2c(C)nn(C(C)C)c2C)cc1)C(C)C  -7.4%
35. CC(C)NC(=O)CCN1CCC(C(=O)c2cc(F)ccc2F)CC1  -7.21%
36. Cc1ccc(CN(C)C(=O)Cn2nc(-c3ccc(F)cc3)oc2=O)cc1  -7.04%
37. Cc1cc(C(=O)Nc2cnn(CC(=O)NC3CCCC3)c2)c(C)s1  -6.94%
38. Cc1cc(C)n(C2CN(CC(=O)N(C)Cc3ccco3)C2)n1  -6.63%
39. COCCNc1ccccc1CNC(=O)NCc1ccc(C)s1  -6.41%
40. Cc1cc(F)ccc1S(=O)(=O)N(C)CC(N)=O  -6.18%
41. CN(C)C(=O)Cc1nc(CN2CCCC2Cn2cccn2)cs1 (stereo not drawn)  -6.16%
42. Cc1cccc(NCCNc2ccc(C#N)cn2)n1  -5.87%
43. COc1ccc2c(c1)CCCN2C(=O)CN1CCOC(CN(C)C)C1 (stereo not drawn)  -4.78%
44. Cc1cc(N2CCN(C(=O)c3cc(Cl)c[nH]3)CC2)nc(C)n1  -4.7%
45. Cc1cn2c(n1)CCC(NC(=O)CCOc1cccc(F)c1)C2 (stereo not drawn)  -4.07%
46. Cc1ccc(C(=O)Nc2cnn(CC(=O)NC3CCCC3)c2)c(=O)[nH]1  -3.7%
47. O=C(CCCOc1ccccc1F)NCCCC(=O)Nc1cn[nH]c1  -3.66%
48. Cc1ccccc1-c1cc(NC(=O)NC2CCC(O)CC2)n(CCO)n1 (stereo not drawn)  -3.45%
49. CCOCC(=O)Nc1cccc(Oc2ccccn2)c1  -3.31%
50. COC(=O)c1ccc(S(=O)(=O)N(C)CC(N)=O)c(Cl)c1  -3.22%
51. Cc1noc(C)c1CNC(=O)N1CCC(NS(C)(=O)=O)CC1  -3.15%
52. NC(=O)NC(=O)CCN(Cc1ccccc1)CC1CCOCC1  -2.94%
53. Cc1ccc(OCC(=O)NCc2ccco2)nc1  -2.92%
54. Cc1[nH]ccc1C(=O)NC1CCC(N2C(=O)CCC2=O)CC1 (stereo not drawn)  -2.84%
55. Cc1noc(C)c1CNC(=O)N1CCC(CN2CCC(C)CC2)CC1  -2.8%
56. CCC(C)NC(=O)c1cncc(Br)c1 (stereo not drawn)  -2.39%
57. Cc1cccc(N2CCN(C(=O)CN3CCC(C(N)=O)CC3)CC2)c1  -2.32%
58. Cc1cc(CNc2ccc(C(=O)N3CCc4ccccc43)cn2)on1  -1.24%
59. CN(C)C1CCCN(C(=O)NCCNC(=O)C2CCCC2)C1 (stereo not drawn)  -1.02%
60. Cc1ccc(F)c(C(=O)NC2CCC(N3C(=O)CCC3=O)CC2)c1 (stereo not drawn)  -0.936%
61. COc1c(C2CCCN2CCOc2ccccc2C#N)c(C)nn1C (stereo not drawn)  -0.493%
62. COCc1ccccc1C(=O)NCC(O)c1ccc(Cl)s1 (stereo not drawn)  0.31%
63. CCN(CC)c1nc2sc(C(=O)NC(C)(C)C(=O)OC)cc2s1  0.56%
64. CCc1cc(NCc2cccnc2N2CCCCC2)n2ncnc2n1  0.666%
65. CCC(CC)NC(=O)c1cncc(Br)c1  1.03%
66. CN1N=C(C(=O)N2CCN(c3ncccn3)CC2)CCC1=O  1.03%
67. Cc1nn(C(C)(C)C)c(=O)n1CC(=O)NCC(F)(F)F  3.06%
68. Cc1ccc(C)c(C(=O)NC2CCC(N3C(=O)CCC3=O)CC2)c1 (stereo not drawn)  3.79%
69. CC(C)Cc1noc(CN2CCCN(C(=O)c3ccccc3Cl)CC2)n1  4.22%
70. COCCN(Cc1cccnc1)S(=O)(=O)c1cccc(F)c1F  5.02%
71. CCOCCNC1(c2ccc(Cl)cc2)CCOCC1  9.63%
72. COc1cc(C2(C(=O)N3CCN(CC(C)O)CC3)CC2)ccc1C (stereo not drawn)  10.5%
73. O=C(NC1CCC(N2C(=O)CCC2=O)CC1)c1c[nH]c2ccccc12 (stereo not drawn)  10.8%
74. CC(NC(=O)CNC(=O)OC(C)(C)C)c1ccc(Cl)s1 (stereo not drawn)  10.9%
75. CN(C)c1cc2c(nn1)CCN(C(=O)c1cc3c(s1)CCCC3)C2  13.1%
76. CCn1cc(C(=O)N2CCCN(c3cccnn3)CC2)c2ccccc21  14.2%
77. O=C(NC1CC1)c1cc(NC(=O)N2CCSCC2)ccc1Cl  15.9%
78. CN(C)C1CCCN(C(=O)NCCC(C)(C)C)C1 (stereo not drawn)  16.4%
79. Cn1cccc1C(=O)NC1CCN(c2ccc(OC(F)(F)F)cc2)CC1  16.6%
80. CN(Cc1nnc(C2CC2)n1C)C1CCN(Cc2ccccc2)C1 (stereo not drawn)  17.5%
81. CCOc1ncccc1CNC(=O)CN1CCCCCC1=O  19.7%
82. Cc1ccsc1C(=O)Nc1cnn(CC(=O)NC2CCCC2)c1  23.1%
83. NC(=O)CN(CC(=O)NCCc1c(F)cccc1F)C1CCCC1  23.5%
